The subject of assay [1] is New Zealand White rabbits. The assay can be described thus: Coated flow-diverter stents (CFD) in the rabbit aneurysm model, no aspirin nor clopidogrel after implantation. Format: in vivo. As to conditions: 7 days, n=3, no aspirin nor clopidogrel after the implantation; preliminary. An excerpt:
The same materials and protocol as in Example 3 were used, except that: • Only 3 animals were used for each condition, and. • No aspirin nor clopidogrel was given to animals after the implantation.

In assay [2] the test system is New Zealand White rabbits. The experiment in a line: Coated flow-diverter stents (CFD) implanted in aneurysm-carrying artery and abdominal aorta of the rabbit aneurysm model, with aspirin and clopidogrel; SEM and histopathology. Type of assay: in vivo. From the text: Flow-diverter stents (CFD) are braided meshes made of nitinol, from Sinomed. They are coated by one of the following coatings: • 1. SP1072 peptide according to the invention, or • 2. Hydrophilic polymer eG NTMA (obtained from the electrografting of N-[Tris(hydroxymethyl)Methyl] Acrylamide).
A total of 8 healthy New Zealand White rabbits (including 2 spare animals), male and female, weighing about 3 kg, were included in this study. A total of 3 observation time points of 7 days, 30 days and 60 days postoperatively were set. The experiment was divided into two steps: 1) aneurysm animal modeling; 2) implantation of a dense mesh stent in the aneurysm-carrying artery and abdominal aorta for each animal. The stent implantation in the aneurysm-carrying artery was to be used to examine the safety and effectiveness of the stent in treating aneurysms, and the stent implantation in the abdominal aorta, covering a pair of lumbar arteries, was to be used to examine the safety of the tested stent.
The test group was implanted with a dense mesh stent system in the aneurysm location (common carotid artery) and in the abdominal aorta of the animal model, and the control group was implanted with a dense mesh stent system in the aneurysm-carrying artery, where the abdominal aorta was implanted with the device to evaluate the effect of the stent on the penetrating and branch vessels.
In addition to heparin sodium injection 150 U/kg by IV during implantation, antiplatelet therapy (aspirin and clopidogrel) was given to the animals at 5 mg/kg each by feeding once a day for 3 days before surgery and at 5 mg/kg each by feeding postoperative to endpoint.
The collected tissues of the stented segments of the carrier arteries were preserved in 10% neutral formalin for more than 48 hours of immersion fixation, dehydrated in alcohol gradient and treated with xylene transparency for histopathological analysis.
The resin-embedded stented segment of the aneurysm-carrying artery was sectioned transversely through the neck of the aneurysm, with one slice cut at the aneurysm and two slices cut at the non-aneurysm, and stained with HE; the non-stented segment was paraffin-embedded, with one slice cut at the proximal and one at the distal end; HE staining was performed for histopathological evaluation.
One animal each at 7D (7 days), 30D (30 days) and 60D (60 days) was randomly selected, and the aneurysm-carrying artery and abdominal aorta implanted at the above time points were collected for SEM to observe the endothelialization of the flow-directed stent at the aneurysm neck site and the opening site of the branch vessels at the abdominal aorta site.

The subject of assay [3] is Human aortic endothelial cells. The experiment in a line: Human aortic endothelial cells grown 48 h on bare or peptide-coated nitinol disks; F-actin and CD31 fluorescence image analysis. Type of assay: cell-based. As to the method:
Nitinol disks are left untouched (bare metal) or coated with a domain 1, domain 2 or domain 1 and 2 CD31 analog peptide. The tested peptide is grafted to the nitinol disk following a polydopamine, DBCO-PEG4-amine and azide CD31 derivative peptide using a sequential dip-coating layering procedure. After this step, all the disks are incubated with Human aortic endothelial cells for 48h. Disks are then rinsed and the cells are fixed in a formalin solution before staining. The staining is fulfilled using phalloidin coupled to AlexaFluor®488 dye (green fluorescence for Actin), DAPI is used for DNA staining and a domain 1 CD31 antibody coupled to APC is used for external Domain 1 staining. The cell adhesion and Actin/CD31 expression was evaluated by image analysis of the surface after staining.
In particular, as per FIG. 2 the bare or coated nitinol disks were placed at the bottom of culture wells. Primary Human Aortic Endothelial Cells (HAEC) were allowed to grow on the disks for a period of 48 h. The disks were thereafter rinsed with phosphate buffered saline, fixed in formalin, and processed for fluorescence microscopy. Disk-adherent cells were immersed in a solution comprising Hoechst 33342 (1 μg/ml, to stain the nuclei), phalloidin coupled to AlexaFluor®488 dye (0.5 μM, to stain F-actin fibers) and a monoclonal antibody directed against CD31 domain 1, coupled to allophycocyanin (to detect the presence and localization of intact CD31 at the cell surface) for 1 hour at 37° C., washed and mounted face down on glass bottom imaging chambers for imaging with an inverted fluorescence microscope.
Surface type is indicated on the Y axis, data are expressed as average±SD (N=6/surface type). Each dot corresponds to a specific surface modification. The F-actin expression relates the cellular stress of the cell in presence of the exogenous material.
In FIG. 4 the surface type is indicated on the Y axis. Each dot corresponds to a specific surface modification. Data are expressed as “Integrated Density” average±SD (N=6/surface type). CD31 expression relates the capacity of endothelial cells to adopt a physiologic phenotype while growing on a given substrate. An important variability is observed in terms of CD31 expression by HAEC according to the surface modification of the nitinol disks.
The effect of different peptides, belonging to the different groups, were tested in batches following the same protocol as in FIG. 6. Different peptides from each group were tested in batches and the effect of individual peptides was repeatedly assessed in separate experiments. Data from all experiments were obtained by computer-assisted analysis of images of the disk side covered with endothelial cells, captured in the blue, green and red channel of an inverted fluorescence microscope. The functional score of the peptides belonging to the different groups was calculated by multiplying the number of cells (as detected by the number of blue, Dapi+ nuclei) for the integrated density of CD31 expression (red signal provided by the binding of a mouse anti-human CD31 monoclonal antibody, clone 9G11, conjugated allophycocyanin) and their product being divided for the integrated density of the F-actin polymerization (Phalloidin coupled to a green fluorochrome).
The same protocol as in Example 1 was followed, using peptides according to the invention (SP547, SP548 SP745, SP1374, SP1072, SP1070, SP1071, SP1379 and SP1383) as defined above and the prior art peptide P8RI of sequence KWPALFVR (SEQ ID NO: 52).
The “CD31/Actin” score, resulting from the integrated density of CD31 immunostaining signal divided by the signal of phalloidin, which binds to the polymerized F-actin of the cytoskeleton, has been used to identify the physiological/non-stressed character of the arterial endothelial cells growing onto the surface of experimental disks placed at the bottom of culture wells. […]

[4] abbreviates: day 7, aneurysm-carrying artery, HE staining, FIG. 29.
[5] abbreviates: day 60, aneurysm-carrying artery, FIG. 30.

Square brackets hold non-standard residues; d marks the D form. Primed or numbered codes have the meaning given here. Ends that are not written are not given here. Lys(N3) = [N-]=[N+]=NCCCC[C@H](N)C(=O)O; PEG4′ = not defined here

“YKSTVIVNNKEKTTAE-PEG4-K(N3)-CONH2 (YKSTVIVNNKEKTTAE[PEG4′][Lys(N3)]-NH2) [SP1072]”: the “survival and thrombus after implantation” value in assay [1] is recorded as “still alive with no thrombus”. In assay [2] (Example 3 conclusion), the “endothelialization of the device at sites other than the aneurysm entry (conclusion)” value was “fast and complete without apparent inflammation nor neointima”; the “endothelialization on the inner surface of the flow-diverter stents (conclusion)” value is on record as “promotes early endothelialization on the inner surface of the flow-diverter stents”; the “neo arterial wall at the entry of the aneurysm sac and thrombus inside the sac (conclusion)” value is “promotes the growth of an organized, blood-impermeable neo arterial wall at the entry of the aneurysm sac”. In assay [2] (setting [4]), the “entry of fresh blood into the aneurysmal sac / thrombus (histopathology)” value was “fresh blood is no longer allowed to enter and remain trapped there”; the “organization of the thrombus in the aneurysmal sac (histopathology)” value is given as “organized”. In addition, in assay [2] (setting [5]), the “inflammation/thrombosis of the arterial wall in contact with the stent struts (histopathology)” value is “absence of inflammation/thrombosis of the arterial wall that is already in contact with the stent struts” and the “organization of the thrombus in the aneurysmal sac (histopathology)” value is given as “very well organized”. The CD31/Actin score result in assay [3] (Example 2, FIG. 25, compared to bare metal disks or disks coated with PDA alone) is reported as “significantly higher”. For the same substance, the “CD31 expression, Integrated Density” value in assay [3] (HAEC 48 h on coated nitinol disks, anti-CD31 domain 1 antibody, compared to other modified disks and bare controls, FIGS. 2, 4, 5) was “evident positive effect in terms of CD31 expression”. For the same substance, the “ratio between CD31 and F-actin expression” value in assay [3] (compared to bare metal and disks coated with PDA only, FIG. 6) is reported as “higher CD31/actin ratio”.

These data come from patent US20250281679A1, “BIOMIMETIC COATING FOR ENDOVASCULAR STENT” (INSERM (Institut National de la Santé et de la Recherche …, priority 2021, published 2025).
